Reference: a compilation of properties of binary mixtures (doi:10.1021/acs.jpcb.5b11900)

Experiment: xn = mol fraction of the nth substance listed
Conditions: 101 kPa

CC[N+](CC)(CC)CC.O=[N+]([O-])[O-] + CC[NH3+].O=[N+]([O-])[O-]
Conditions | electrical conductivity [S/m] | viscosity [mPa·s]
293.15 K, x1 = 0.0501 | 1.56 | 50.7
293.15 K, x1 = 0.1 | 1.27 | 60.1
293.15 K, x1 = 0.2001 | 0.797 | 91.6
293.15 K, x1 = 0.2567 | 0.623 | 122
293.15 K, x1 = 0.2995 | 0.392 | 144
293.15 K, x1 = 0.35 | 0.359 | 211
298.15 K, x1 = 0.0501 | 1.83 | 42.2
298.15 K, x1 = 0.1 | 1.5 | 49.6
298.15 K, x1 = 0.15 | 1.21 | 60.4
298.15 K, x1 = 0.2001 | 0.96 | 74
298.15 K, x1 = 0.2567 | 0.762 | 96.9
298.15 K, x1 = 0.2995 | – | 114
298.15 K, x1 = 0.35 | 0.462 | 167
303.15 K, x1 = 0.1 | 1.76 | 41.4
303.15 K, x1 = 0.2001 | 1.14 | 60.7
303.15 K, x1 = 0.2567 | 0.912 | 78.3
303.15 K, x1 = 0.2995 | 0.594 | 91.3
308.15 K, x1 = 0.0501 | 2.44 | 30.3
308.15 K, x1 = 0.1 | 2.03 | 35.5
308.15 K, x1 = 0.15 | 1.65 | 41.9
308.15 K, x1 = 0.2567 | 1.08 | 64.1
308.15 K, x1 = 0.2995 | 0.715 | 74.2
308.15 K, x1 = 0.35 | 0.671 | 104
313.15 K, x1 = 0.0501 | 2.78 | 26
313.15 K, x1 = 0.15 | 1.91 | 35.6
313.15 K, x1 = 0.2001 | 1.56 | 42.4
313.15 K, x1 = 0.2567 | 1.26 | 53.4
313.15 K, x1 = 0.2995 | 0.848 | 61.3
313.15 K, x1 = 0.35 | 0.804 | 85.4
318.15 K, x1 = 0.0501 | 3.14 | 22.5
318.15 K, x1 = 0.1 | 2.65 | 26.1
318.15 K, x1 = 0.15 | 2.17 | 30.4
318.15 K, x1 = 0.2001 | 1.79 | 35.9
318.15 K, x1 = 0.2567 | 1.46 | 44.7
318.15 K, x1 = 0.35 | 0.948 | 69.4
323.15 K, x1 = 0.0501 | 3.52 | 19.7
323.15 K, x1 = 0.1 | 2.99 | 22.7
323.15 K, x1 = 0.2001 | 2.04 | 30.7
323.15 K, x1 = 0.2567 | 1.68 | 37.9
323.15 K, x1 = 0.2995 | 1.22 | 42.8
323.15 K, x1 = 0.35 | 1.11 | 57.6
328.15 K, x1 = 0.0501 | – | 17.3
328.15 K, x1 = 0.1 | – | 19.9
328.15 K, x1 = 0.15 | – | 22.8
328.15 K, x1 = 0.2995 | – | 36.4
333.15 K, x1 = 0.0501 | – | 15.3
333.15 K, x1 = 0.1 | – | 17.5
333.15 K, x1 = 0.2001 | – | 23.2
333.15 K, x1 = 0.2567 | – | 28.1
333.15 K, x1 = 0.2995 | – | 31.3
333.15 K, x1 = 0.35 | – | 41.5
338.15 K, x1 = 0.0501 | – | 13.7
338.15 K, x1 = 0.1 | – | 15.5
338.15 K, x1 = 0.15 | – | 17.7
338.15 K, x1 = 0.2001 | – | 20.3
338.15 K, x1 = 0.2567 | – | 24.3
338.15 K, x1 = 0.2995 | – | 27
338.15 K, x1 = 0.35 | – | 35.1
343.15 K, x1 = 0.0501 | – | 12.3
343.15 K, x1 = 0.1 | – | 13.6
343.15 K, x1 = 0.2001 | – | 18
343.15 K, x1 = 0.2567 | – | 21.4
343.15 K, x1 = 0.2995 | – | 23.6
343.15 K, x1 = 0.35 | – | 30.2
348.15 K, x1 = 0.0501 | – | 11.1
348.15 K, x1 = 0.1 | – | 12.2
348.15 K, x1 = 0.15 | – | 14.1
348.15 K, x1 = 0.2567 | – | 18.9
348.15 K, x1 = 0.2995 | – | 20.7
353.15 K, x1 = 0.0501 | – | 10
353.15 K, x1 = 0.15 | – | 12.7
353.15 K, x1 = 0.2001 | – | 14.4
353.15 K, x1 = 0.2567 | – | 16.9
353.15 K, x1 = 0.2995 | – | 18.4
